Data from publication PMC12416277, “Phytochemical alkaloids orchestrate immunometabolism against viral infections” (National Science Review, 2025).
Read-outs that look alike come from different tables or passages of the source.

How the values were obtained:
[1] = tested on: H1N1; assay: Dose-response of infectivity, H1N1 in A549 cells (viral mRNA by qRT-PCR); assay type: cell-based; conditions: Influenza A virus; A549 cells, H1N1; read-out: EC50
[2] = tested on: EMCV; assay: microbe, parasite or virus in culture; assay type: cell-based, encephalomyocarditis virus (EMCV); conditions: Cardiovirus A, A549
[3] = tested on: HSV-1; assay: microbe, parasite or virus in culture; assay type: cell-based, herpes simplex virus 1 (HSV-1); conditions: Human alphaherpesvirus 1, A549
[4] = tested on: EMCV; assay: microbe, parasite or virus in culture; assay type: cell-based, encephalomyocarditis virus (EMCV); conditions: Cardiovirus A, L929
[5] = tested on: HSV-1; assay: microbe, parasite or virus in culture; assay type: cell-based, herpes simplex virus 1 (HSV-1); conditions: Human alphaherpesvirus 1, L929
[6] = tested on: VSV; assay type: cell-based, vesicular stomatitis virus (VSV)
[7] = tested on: VSV; assay type: cell-based, vesicular stomatitis virus (VSV); remark: listed apart in the source
[8] = tested on: H1N1; assay: Viral attachment, entry and post-entry assay, H1N1 in A549 cells; assay type: cell-based, influenza virus A (H1N1)
[9] = tested on: VSV; assay type: cell-based, vesicular stomatitis virus (VSV); remark: listed apart in the source
[10] = tested on: VSV; assay type: cell-based, vesicular stomatitis virus (VSV); remark: listed apart in the source
[11] = tested on: H1N1; assay: Antiviral effect in normal/serum-free medium during H1N1 infection of A549 cells; assay type: cell-based, influenza virus A (H1N1); conditions: serum-free conditions
[12] = tested on: IFNB1, IFIT1, IFIT2 and IFI44 mRNA; assay: IFNB1 and ISG mRNA expression in A549, PBMC and MEF cells (qRT-PCR); assay type: cell-based; conditions: A549, PBMC, MEF cells
[13] = tested on: Ifnb1, Ifit1, Ifit2 and Ifi44 mRNA; assay: Ifnb1 and ISG mRNA in mouse lungs, livers, spleens after intraperitoneal injection; assay type: in vivo; conditions: intraperitoneal 30, 60 mg/kg/d, 24-48 h
[14] = tested on: VSV; assay type: cell-based, vesicular stomatitis virus (VSV); conditions: Sting-/- BMDM cells vs WT
[15] = tested on: H1N1; assay type: cell-based, influenza virus A (H1N1)
[16] = tested on: STING; assay type: cell-based
[17] = tested on: H1N1; assay: In vivo H1N1 infection mouse model; set-up: species or system C57/BL6J mice; conditions: mice
[18] = cited from earlier work
[19] = target: T1, NPC1 (Homo sapiens, UniProt O15118); assay: Cellular thermal shift assay (CETSA); conditions: 150 µM, HepG2 and A549 lysates
T1 sequence (O15118 23-1278): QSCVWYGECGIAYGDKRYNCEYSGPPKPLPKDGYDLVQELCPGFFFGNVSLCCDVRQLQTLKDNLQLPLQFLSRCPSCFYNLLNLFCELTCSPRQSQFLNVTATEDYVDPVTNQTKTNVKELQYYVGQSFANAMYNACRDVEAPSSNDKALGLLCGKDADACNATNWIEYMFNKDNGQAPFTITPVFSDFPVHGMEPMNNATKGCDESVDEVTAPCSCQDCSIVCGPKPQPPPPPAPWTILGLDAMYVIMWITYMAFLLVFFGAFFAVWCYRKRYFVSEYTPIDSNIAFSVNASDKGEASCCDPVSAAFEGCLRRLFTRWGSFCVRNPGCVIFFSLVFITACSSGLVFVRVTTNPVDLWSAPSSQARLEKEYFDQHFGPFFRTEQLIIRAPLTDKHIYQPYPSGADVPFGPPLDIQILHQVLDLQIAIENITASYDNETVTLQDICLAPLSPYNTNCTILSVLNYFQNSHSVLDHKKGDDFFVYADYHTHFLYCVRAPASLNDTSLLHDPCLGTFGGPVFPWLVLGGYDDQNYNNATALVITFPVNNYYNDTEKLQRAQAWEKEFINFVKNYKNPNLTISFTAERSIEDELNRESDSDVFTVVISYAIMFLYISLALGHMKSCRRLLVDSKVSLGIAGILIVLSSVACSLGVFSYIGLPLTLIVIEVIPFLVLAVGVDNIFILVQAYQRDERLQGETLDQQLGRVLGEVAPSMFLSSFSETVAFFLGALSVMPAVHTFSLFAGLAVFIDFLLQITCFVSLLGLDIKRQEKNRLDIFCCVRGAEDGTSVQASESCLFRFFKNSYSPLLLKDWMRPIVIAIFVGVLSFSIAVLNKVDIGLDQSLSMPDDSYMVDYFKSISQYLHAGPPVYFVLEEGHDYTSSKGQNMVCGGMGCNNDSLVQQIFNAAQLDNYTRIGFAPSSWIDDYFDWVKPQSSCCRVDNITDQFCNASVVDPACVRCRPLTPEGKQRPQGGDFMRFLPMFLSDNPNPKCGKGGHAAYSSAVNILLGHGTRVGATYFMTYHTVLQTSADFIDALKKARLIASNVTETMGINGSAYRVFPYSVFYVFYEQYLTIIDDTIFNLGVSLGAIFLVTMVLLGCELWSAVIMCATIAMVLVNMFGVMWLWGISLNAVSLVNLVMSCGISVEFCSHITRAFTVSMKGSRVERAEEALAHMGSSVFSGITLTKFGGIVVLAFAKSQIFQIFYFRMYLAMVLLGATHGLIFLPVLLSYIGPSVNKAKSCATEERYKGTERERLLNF

[20] = target: T1, NPC1; assay: Drug affinity responsive target stability (DARTS); conditions: 150 µM, pronase digestion
[21] = H1N1, intranasal administration

Question: For COc1ccc2cc1Oc1ccc(cc1)C[C@H]1c3cc(c(OC)cc3CCN1C)Oc1c(OC)c(OC)cc3c1[C@H](C2)N(C)CC3 [Tet, tetrandrine], which EC50 [1] is on record?
Answer: 330 nM

Question: And the EC50 [2]?
Answer: 231 nM

Question: What about the EC50 [3] of the same compound?
Answer: 1590 nM

Question: And the EC50 [4]?
Answer: 989 nM

Question: What about the EC50 [5] of the same compound?
Answer: 132 nM

Question: What about the VSV infection [6] of the same compound?
Answer: effectively suppressed

Question: What about the VSV attachment [7] of the same compound?
Answer: without affecting virus attachment

Question: What about the “VSV infection during entry or post-entry stages” value [7] of the same compound?
Answer: inhibited

Question: What about the “VSV-eGFP entry into lysosomes” value [7] of the same compound?
Answer: blocked

Question: And the “H1N1 infection during entry or post-entry stages” value [8]?
Answer: inhibited

Question: And the H1N1 attachment ([8]; 4°C)?
Answer: without affecting virus attachment

Question: And the VSV replication [9]?
Answer: suppressed

Question: And the antiviral efficacy [9]?
Answer: remained unchanged

Question: And the “antiviral effect on VSV entry” value ([10]; MβCD pretreatment (cholesterol depleted))?
Answer: abolished

Question: And the “antiviral effect on VSV entry” value ([10]; cholesterol supplementation using MβCD-cholesterol)?
Answer: restored inhibition

Question: What about the “antiviral effect on H1N1 entry” value [11] of the same compound?
Answer: diminished

Question: And the “IFNB1 and ISGs mRNA” value [12]?
Answer: upregulation

Question: What about the “Ifnb1 and ISGs mRNA levels in vivo” value [13] of the same compound?
Answer: increased Ifnb1 and ISGs mRNA levels in vivo, particularly in lungs and livers

Question: What about the “antiviral effect against VSV” value [14] of the same compound?
Answer: markedly reduced

Question: And the “antiviral effect against H1N1” value [15]?
Answer: diminished

Question: What about the “time-dependent degradation of STING induced by DMXAA” value [16] of the same compound?
Answer: significantly attenuated

Question: And the “NP protein expression in lung tissue” value ([17]; H1N1)?
Answer: inhibited

Question: What about the “alveolar damage and inflammatory infiltrations in lung tissues (H&E)” value ([17]; H1N1) of the same compound?
Answer: significantly alleviated

Question: And the body weight recovery [17, 21]?
Answer: expedited body weight recovery

Question: And the survival rates [17, 21]?
Answer: improved survival rates

Question: What about the systemic clearance [18] of the same compound?
Answer: low

Question: What about the volume of distribution [18] of the same compound?
Answer: high

Question: What about the “NPC1 stability (CETSA)” value [19] of the same compound?
Answer: enhanced NPC1 stability against degradation

Question: And the “NPC1 stability (DARTS)” value [20]?
Answer: enhanced NPC1 stability against degradation
